This passage reports Kd results from PMC6683142, “The lipid-dependent structure and function of LacY can be recapitulated and analyzed in phospholipid-containing detergent micelles” (Scientific Reports, 2019).

The assay has as its target T1, lactose permease (LacY) (Escherichia coli, UniProt P02920, C154G).
T1 construct: LacY with all six native Trp residues and a C-terminal His6-Tag, DDM-solubilized, purified from PE-containing cells (correct topology)
T1 sequence (P02920 1-417 C154G): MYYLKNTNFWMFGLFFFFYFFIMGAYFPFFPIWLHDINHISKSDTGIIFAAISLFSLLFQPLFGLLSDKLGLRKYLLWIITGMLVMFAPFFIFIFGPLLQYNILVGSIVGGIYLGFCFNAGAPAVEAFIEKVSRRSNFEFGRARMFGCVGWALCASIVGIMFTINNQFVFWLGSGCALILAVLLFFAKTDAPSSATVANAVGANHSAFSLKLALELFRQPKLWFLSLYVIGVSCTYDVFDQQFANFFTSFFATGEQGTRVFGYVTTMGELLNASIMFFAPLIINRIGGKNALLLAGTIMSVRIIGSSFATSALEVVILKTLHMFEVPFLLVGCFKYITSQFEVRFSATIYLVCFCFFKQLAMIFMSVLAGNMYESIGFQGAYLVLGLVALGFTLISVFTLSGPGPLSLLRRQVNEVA
The assay can be described thus: Trp → α-NPG FRET (quenching of W151) on purified protein in DDM micelles. Type of assay: binding.

SMILES strings stand for the structures.

A word on the Kd: it is the constant that tells how readily two partners part at equilibrium. A lower Kd goes with a tighter complex. In the case of `O=[N+]([O-])c1ccc(O[C@H]2O[C@H](CO)[C@H](O)[C@H](O)[C@H]2O)cc1` [α-NPG], the affinity, expressed as Kd, was 5.9 µM.
